Data: patent US10053458B2, “Pyrimidine-2,4-diamine derivative and anticancer pharmaceutical composition comprising same as effective ingredient” (KOREA RESEARCH INSTITUTE OF CHEMICAL TECHNOLOGY, priority 2014, dated 2018)
Read-outs that look alike come from different tables or passages of the source.

How the values were obtained:
H3122 = test: Cancer cell proliferation inhibition (SRB/MTS), H3122; conditions: read-out: H3122 GI50
Procedure: (§1) Cancer cell lines used in the experiments were all human-derived cancer cell lines, specifically H2228 and H3122, which are non-small cell lung cancer cell lines.
(§2) The cancer cell proliferation inhibition was measured using the MTS assay as follows. […] Each culture medium was placed in an incubator for 4 hours, taken out and left at room temperature for 10 minutes.

H2228 = test: Cancer cell proliferation inhibition (SRB/MTS), H2228; conditions: read-out: H2228 GI50
Procedure: as §1, §2

BaF3 EML4-ALK WT cells [1] = conditions: mouse, 3 days
ALK wt. = ALK wt. (Homo sapiens (Human), UniProt Q9UM73); test: ALK enzyme inhibitory activity (HTRF kinase assay), ALK wt.; conditions: read-out: ALK wt. IC50, enzyme level
Chain of ALK wt. (Q9UM73 19-1620): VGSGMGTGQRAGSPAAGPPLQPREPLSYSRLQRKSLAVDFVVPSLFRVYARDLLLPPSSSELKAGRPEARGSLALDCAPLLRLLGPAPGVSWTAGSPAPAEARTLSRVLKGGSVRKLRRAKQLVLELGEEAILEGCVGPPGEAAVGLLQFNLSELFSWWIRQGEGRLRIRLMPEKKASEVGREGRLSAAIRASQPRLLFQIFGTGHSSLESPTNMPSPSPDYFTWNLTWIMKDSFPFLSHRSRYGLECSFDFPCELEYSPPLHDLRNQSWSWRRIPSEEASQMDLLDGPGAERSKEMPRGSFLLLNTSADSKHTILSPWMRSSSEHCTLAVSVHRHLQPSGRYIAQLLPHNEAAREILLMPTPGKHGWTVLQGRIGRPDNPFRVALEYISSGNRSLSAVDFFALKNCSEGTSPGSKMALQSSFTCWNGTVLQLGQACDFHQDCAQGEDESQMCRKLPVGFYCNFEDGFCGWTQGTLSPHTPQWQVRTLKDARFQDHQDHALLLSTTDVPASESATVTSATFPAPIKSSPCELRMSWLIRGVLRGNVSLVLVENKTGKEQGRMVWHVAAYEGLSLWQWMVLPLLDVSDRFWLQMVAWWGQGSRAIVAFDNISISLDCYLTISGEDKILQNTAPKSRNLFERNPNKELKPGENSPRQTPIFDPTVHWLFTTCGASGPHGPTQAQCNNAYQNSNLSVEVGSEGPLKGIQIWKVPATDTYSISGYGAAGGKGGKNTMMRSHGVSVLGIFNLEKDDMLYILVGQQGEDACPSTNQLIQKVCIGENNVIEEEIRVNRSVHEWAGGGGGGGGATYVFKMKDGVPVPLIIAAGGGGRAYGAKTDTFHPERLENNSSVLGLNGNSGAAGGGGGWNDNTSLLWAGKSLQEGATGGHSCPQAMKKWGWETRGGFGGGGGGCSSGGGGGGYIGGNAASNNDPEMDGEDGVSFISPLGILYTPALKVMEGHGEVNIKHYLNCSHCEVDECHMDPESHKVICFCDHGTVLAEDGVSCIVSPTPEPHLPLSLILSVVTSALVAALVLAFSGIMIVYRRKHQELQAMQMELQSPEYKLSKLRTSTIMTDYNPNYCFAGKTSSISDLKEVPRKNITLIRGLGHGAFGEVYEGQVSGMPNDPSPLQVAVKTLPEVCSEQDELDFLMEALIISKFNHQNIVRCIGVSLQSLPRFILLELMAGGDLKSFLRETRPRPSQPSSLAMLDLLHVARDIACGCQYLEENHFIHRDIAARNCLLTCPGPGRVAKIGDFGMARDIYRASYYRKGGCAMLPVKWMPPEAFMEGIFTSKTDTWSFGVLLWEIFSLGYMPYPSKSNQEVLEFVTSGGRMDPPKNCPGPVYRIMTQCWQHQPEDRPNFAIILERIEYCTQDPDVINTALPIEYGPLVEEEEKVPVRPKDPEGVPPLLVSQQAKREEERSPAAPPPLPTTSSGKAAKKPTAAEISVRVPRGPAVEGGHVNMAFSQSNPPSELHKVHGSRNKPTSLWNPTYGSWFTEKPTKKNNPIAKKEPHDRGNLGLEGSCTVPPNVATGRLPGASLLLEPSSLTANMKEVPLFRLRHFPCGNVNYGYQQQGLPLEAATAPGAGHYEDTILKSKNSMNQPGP

BaF3 EML4-ALK WT cells [2] = test: Cytotoxicity on BaF3 cell transfected with EML4-ALK WT (WST-1); conditions: read-out: BaF3 EML4-ALK WT, IC50 of the cytotoxicity
[3] = non-small cell lung cancer cell line, 72 hours

| Structure (SMILES) | GI50 (H3122; Homo sapiens, NCI-H3122, 72 h) | GI50 (H2228; Homo sapiens, NCI-H2228, 72 h) | IC50 (BaF3 EML4-ALK WT cells [1]) | GI50 (H3122; [3]) | IC50 (ALK wt.) | GI50 (H2228; [3]) | IC50 (BaF3 EML4-ALK WT cells [2]; 3 days, WST-1) | IC50 (BaF3 EML4-ALK WT cells [2]; Ba/F3 EML4-ALK, 72 h) |
| --- | --- | --- | --- | --- | --- | --- | --- | --- |
| Cc1cc(Nc2ncc(Cl)c(Nc3ccccc3S(=O)(=O)C(C)C)n2)c(OC(C)C)cc1C1CCNCC1 [Comparative Example 2, LDK-378, reference compound] | 23 nM | 25 nM | 19 nM | – | – | – | – | – |
| COc1cc2c(cc1Nc1ncc(Cl)c(Nc3ccccc3S(=O)(=O)C(C)C)n1)CN(CCO)CC2(C)C [Example 93] | – | – | – | < 50 nM | < 10 nM | < 50 nM | < 50 nM | – |
| COc1cc2c(cc1Nc1ncc(Cl)c(Nc3ccccc3S(=O)(=O)C(C)C)n1)CC1(CC1)NC2C (stereo not shown) [Example 30, 5-chloro-N4-(2-(isopropylsulfonyl)phenyl)-N2-(7-methoxy-1methyl-1,4-dihydro-2H-spiro[cyclopropane-1,3-isoquinoline]-6-yl)pyrimidine-2,4-diamine] | < 50 nM | < 50 nM | – | – | – | – | – | 5 nM |
| COc1c(Nc2ncc(Cl)c(Nc3ccccc3S(=O)(=O)C(C)C)n2)cc2c(c1Br)C(C)(C)NCC2 [Example 89, 5-chloro-N4-(2-(isopropylsulfonyl)phenyl)-N2-(8-bromo-7-methoxy-1,1-dimethyl-1,2,3,4-tetrahydroisoquinolin-6-yl)pyrimidine-2,4-diamine] | < 50 nM | < 50 nM | – | – | – | – | – | < 50 nM |
| COc1cc2c(cc1Nc1ncc(Cl)c(Nc3ccccc3S(=O)(=O)C(C)C)n1)CCNC2C(F)(F)F (stereo not shown) [Example 26] | < 50 nM | < 50 nM | – | – | – | – | – | < 50 nM |
| CC(C)S(=O)(=O)c1ccccc1Nc1nc(Nc2cc3c(cc2OC(F)F)C(C)(C)NCC3)ncc1Cl [Example 100, 5-chloro-N4-(2-(isopropylsulfonyl)phenyl)-N2-(7-difluoromethoxy-1,1-dimethyl-1,2,3,4-tetrahydroisoquinolin-6-yl)pyrimidine-2,4-diamine] | < 50 nM | < 50 nM | – | – | – | – | – | < 50 nM |
| CC(C)COc1cc2c(cc1Nc1ncc(Cl)c(Nc3ccccc3S(=O)(=O)C(C)C)n1)CCN(C(=O)C(F)(F)F)C2 [Example 19, 1-(6-(5-chloro-4-(2-(isopropylsulfonyl)phenylamino)pyrimidin-2-yl)amino-7-isobutoxy-3,4-dihydroisoquinolin-2(1H)-yl)-2,2,2-trifluoroethane-1-one] | < 50 nM | < 50 nM | – | – | – | – | – | < 50 nM |
| CCN1CCc2cc(Nc3ncc(Cl)c(Nc4ccccc4S(=O)(=O)C(C)C)n3)c(OC(C)C)cc2C1(C)C [Example 79, 5-chloro-N4-(2-(isopropylsulfonyl)phenyl)-N2-(2-ethyl-7-isopropoxy-1,1-dimethyl-1,2,3,4-tetrahydroisoquinolin-6-yl)pyrimidine-2,4-diamine] | < 50 nM | < 50 nM | – | – | – | – | – | < 50 nM |
| CCOc1cc2c(cc1Nc1ncc(Cl)c(Nc3ccccc3S(=O)(=O)C(C)C)n1)CCNC2(C)C [Example 99, 5-chloro-N4-(2-(isopropylsulfonyl)phenyl)-N2-(7-ethoxy-1,1-dimethyl-1,2,3,4-tetrahydroisoquinolin-6-yl)pyrimidine-2,4-diamine] | < 50 nM | < 50 nM | – | – | – | – | – | < 50 nM |
| COc1cc2c(cc1Nc1ncc(Cl)c(Nc3ccccc3S(=O)(=O)C(C)C)n1)C1(CCCCC1)CN(C(=O)C(F)(F)F)C2 [Example 15, 1-(6-(5-chloro-4-(2-(isopropylsulfonyl)phenylamino)pyrimidin-2-yl)amino-7-methoxy-1H-spiro[cyclohexane-1,4-isoquinoline]-2(3H)-yl)-2,2,2-trifluoroethane-1-one] | < 50 nM | < 50 nM | – | – | – | – | – | < 50 nM |
